Assay results published in patent publication US8906917B2, “Pyrimidine cyclohexyl glucocorticoid receptor modulators” (Corcept Therapeutics, Inc., priority 2011, dated 2014).

Key:
[1] = target: T1, Human Recombinant Glucocorticoid Receptor (Homo sapiens, UniProt P04150); test: Glucocorticoid receptor binding displacement assay with 3H-dexamethasone; details: displacement of 2.5 nM 3H-dexamethasone, 2.5 hrs at 4° C.; Ki from IC50 by Cheng-Prusoff; read-out: GR Binding Ki
T1 construct: This GR was a full-length steroid hormone receptor; host or cells: recombinant baculovirus-infected insect cells
T1 sequence (P04150 1-777): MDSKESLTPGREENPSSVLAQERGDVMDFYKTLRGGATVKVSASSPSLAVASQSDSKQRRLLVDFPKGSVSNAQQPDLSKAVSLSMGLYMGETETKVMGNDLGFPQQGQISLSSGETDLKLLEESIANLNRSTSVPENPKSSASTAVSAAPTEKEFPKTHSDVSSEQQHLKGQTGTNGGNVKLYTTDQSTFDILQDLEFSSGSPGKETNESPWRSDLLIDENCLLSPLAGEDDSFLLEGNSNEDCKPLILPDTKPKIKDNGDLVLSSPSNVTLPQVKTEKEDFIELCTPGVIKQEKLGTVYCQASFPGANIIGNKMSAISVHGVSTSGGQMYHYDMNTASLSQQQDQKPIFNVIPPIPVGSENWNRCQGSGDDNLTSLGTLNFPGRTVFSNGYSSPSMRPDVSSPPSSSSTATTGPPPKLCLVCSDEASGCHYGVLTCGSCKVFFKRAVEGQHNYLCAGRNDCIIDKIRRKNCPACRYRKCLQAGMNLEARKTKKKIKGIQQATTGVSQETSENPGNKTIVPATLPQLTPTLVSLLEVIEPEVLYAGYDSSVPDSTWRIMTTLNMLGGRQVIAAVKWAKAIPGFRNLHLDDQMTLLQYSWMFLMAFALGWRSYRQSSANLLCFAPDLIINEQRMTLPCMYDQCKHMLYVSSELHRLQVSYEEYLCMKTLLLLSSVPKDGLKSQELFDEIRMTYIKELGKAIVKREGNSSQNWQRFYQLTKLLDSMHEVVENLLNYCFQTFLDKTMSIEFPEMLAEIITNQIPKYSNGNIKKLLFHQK
Description: Binding protocol: Compounds were tested in a binding displacement assay using human recombinant glucocorticoid receptor with ^3H-dexamethasone as the ligand. The source of the receptor was recombinant baculovirus-infected insect cells. This GR was a full-length steroid hormone receptor likely to be associated with heat-shock and other endogenous proteins.
For the IC50 determinations, test compounds were tested at 6 concentrations in duplicate. Test compounds were diluted from 10 mM stock in 100% DMSO. The tested solutions were prepared at 2× final assay concentration in 2% DMSO/assay buffer.
All reagents and the assay plate were kept on ice during the addition of reagents. The reagents were added to wells of a v-bottomed polypropylene plate in the following order: 25 μl of 10 nM 3H-dexamethasone solution, 50 μl of TB/NSB/compound solution and 25 μl of 2 nM GR solution. After the additions, the incubation mixture was mixed and incubated for 2.5 hrs at 4° C.
Alter 2.5 hrs incubation, unbound counts were removed with dextran coated charcoal (DCC) as follows: 15 μl of DCC solution (10% DCC in assay buffer) was added to all wells and mixed (total volume 115 μl). The plate was centrifuged at 4000 rpm for 10 minutes at 4° C. 75 μl of the supernatants was carefully pipetted into an optiplate. 150 μl of scintillation cocktail were added (Microscint-40, Perkin Elmer). The plate was vigorously shaken for approx. 10 minutes and counted on Topcount.
The IC50 values were converted to Ki (the inhibition constant) using the Cheng-Prusoff equation.
Reagents: Assay buffer: 10 mM potassium phosphate buffer pH 7.6 containing 5 mM DTT, 10 mM sodium molybdate, 100 μM EDTA and 0.1% BSA.

[2] = target: T2, glucocorticoid receptors (endogenous) in SW1353/MMTV-5 cells (Homo sapiens, UniProt P04150); test: GR functional assay using SW1353/MMTV-5 cells (MMTV-GRE luciferase reporter); assay type: cell-based
T2 construct: contains endogenous glucocorticoid receptors; endogenous in cells; host or cells: SW1353/MMTV-5 (human chondrosarcoma, stably transfected with pMAMneo-Luc reporter)
T2 sequence (P04150 1-777): T1 sequence (P04150 1-777)
Description: SW1353/MMTV-5 is an adherent human chondrosarcoma cell line that contains endogenous glucocorticoid receptors. It was transacted with a plasmid (pMAMneo-Luc) encoding firefly luciferase located behind a glucocorticoid-responsive element (GRE) derived from a viral promoter (long terminal repeat of mouse mammary tumor virus). A stable cell line SW1353/MMTV-5 was selected with geneticin, which was required to maintain this plasmid.
SW1353/MMTV-5 cells were distributed in 96-well plates and incubated in medium (without geneticin) for 24 hrs.

Row | SMILES | Ki [1] [nM] | Ki [2] [nM]
1 | O=c1[nH]c(C2=CCC(c3ccccc3)CC2)c(Cc2ccccc2)c(=O)[nH]1 (stereo not shown) [Compound 2a, 5-Benzyl-6-(4-phenylcyclohex-1-enyl)-1H-pyrimidine-2,4-dione] | > 10 | > 100
2 | Cc1cccc(Cc2c(C3=CCC(c4ccccc4)CC3)[nH]c(=O)[nH]c2=O)c1 (stereo not shown) [Compound 2b] | 5 to 10 | 50 to 100
3 | O=c1[nH]c(C2=CCC(c3ccccc3)CC2)c(Cc2ccccc2Cl)c(=O)[nH]1 (stereo not shown) [Compound 2c] | 5 to 10 | > 100
4 | Cc1ccccc1Cc1c(C2=CCC(c3ccccc3)CC2)[nH]c(=O)[nH]c1=O (stereo not shown) [Compound 2d] | > 10 | > 100
5 | O=c1[nH]c(=O)c(Cc2ccccc2)c([C@H]2CC[C@H](c3ccccc3)CC2)[nH]1 [Compound 3a, (E)-5-Benzyl-6-(4-phenylcyclohexyl)-1H-pyrimidine-2,4-dione] | < 5 | < 50
6 | O=c1[nH]c(=O)c(Cc2ccc(F)c(Cl)c2)c([C@H]2CC[C@H](c3ccccc3)CC2)[nH]1 [Compound 3aa] | > 10 | < 50
7 | O=c1[nH]c(=O)c(Cc2cccc(C(F)(F)F)c2)c([C@H]2CC[C@H](c3ccccc3)CC2)[nH]1 [Compound 3b, (E)-6-(4-Phenylcyclohexyl)-5-(3-trifluoromethylbenzyl)-1H-pyrimidine-2,4-dione] | 5 to 10 | < 50
8 | O=c1[nH]c(=O)c(Cc2ccccc2)c([C@H]2CC[C@@H](c3ccccc3)CC2)[nH]1 [Compound 3bb] | > 10 | > 100
9 | O=c1[nH]c(=O)c(Cc2ccccc2Cl)c([C@H]2CC[C@H](c3ccccc3)CC2)[nH]1 [Compound 3c] | < 5 | < 50
10 | Nc1cccc(Cc2c(=O)[nH]c(=O)[nH]c2[C@H]2CC[C@H](c3ccccc3)CC2)n1 [Compound 3cc] | > 10 | > 100
11 | O=c1[nH]c(=O)c(Cc2cccc(Cl)c2Cl)c([C@H]2CC[C@H](c3ccccc3)CC2)[nH]1 [Compound 3d] | < 5 | < 50
12 | O=c1[nH]c(=O)c(Cc2c(Cl)cccc2Cl)c([C@H]2CC[C@H](c3ccccc3)CC2)[nH]1 [Compound 3e] | 5 to 10 | 50 to 100
13 | O=c1[nH]c(=O)c(Cc2ccc(Cl)cc2Cl)c([C@H]2CC[C@H](c3ccccc3)CC2)[nH]1 [Compound 3f] | 5 to 10 | < 50
14 | O=c1[nH]c(=O)c(Cc2cc(Cl)ccc2Cl)c([C@H]2CC[C@H](c3ccccc3)CC2)[nH]1 [Compound 3g] | < 5 | < 50
15 | Cc1cccc(Cc2c(=O)[nH]c(=O)[nH]c2[C@H]2CC[C@H](c3ccccc3)CC2)c1 [Compound 3h, (E)-5-(3-Methylbenzyl)-6-(4-phenylcyclohexyl)-1H-pyrimidine-2,4-dione] | < 5 | < 50
16 | Cc1cccc(Cc2c(=O)[nH]c(=O)[nH]c2[C@H]2CC[C@H](c3ccccc3)CC2)n1 [Compound 3j] | > 10 | 50 to 100
17 | O=c1[nH]c(=O)c(Cc2ncccn2)c([C@H]2CC[C@H](c3ccccc3)CC2)[nH]1 [Compound 3k] | > 10 | > 100
18 | O=c1[nH]c(=O)c(Cc2cccc(C(F)(F)F)n2)c([C@H]2CC[C@H](c3ccccc3)CC2)[nH]1 [Compound 3l] | 5 to 10 | < 50
19 | O=c1[nH]c(=O)c(Cc2ncccc2Cl)c([C@H]2CC[C@H](c3ccccc3)CC2)[nH]1 [Compound 3m] | > 10 | > 100

Row | SMILES | Ki [1] [nM] | Ki [2] [nM]
20 | Cc1cc(Cc2c(=O)[nH]c(=O)[nH]c2[C@H]2CC[C@H](c3ccccc3)CC2)ccn1 [Compound 3n] | > 10 | > 100
21 | O=c1[nH]c(=O)c(Cc2nccs2)c([C@H]2CC[C@H](c3ccccc3)CC2)[nH]1 [Compound 3o] | > 10 | > 100
22 | O=c1[nH]c(=O)c(Cc2ccccn2)c([C@H]2CC[C@H](c3ccccc3)CC2)[nH]1 [Compound 3p] | > 10 | > 100
23 | Cc1ccnc(Cc2c(=O)[nH]c(=O)[nH]c2[C@H]2CC[C@H](c3ccccc3)CC2)c1 [Compound 3q] | > 10 | < 50
24 | O=c1[nH]c(=O)c(Cc2cc(C(F)(F)F)ccn2)c([C@H]2CC[C@H](c3ccccc3)CC2)[nH]1 [Compound 3r] | > 10 | 50 to 100
25 | CCc1ccccc1Cc1c(=O)[nH]c(=O)[nH]c1[C@H]1CC[C@H](c2ccccc2)CC1 [Compound 3s] | 5 to 10 | 50 to 100
26 | Cc1csc(Cc2c(=O)[nH]c(=O)[nH]c2[C@H]2CC[C@H](c3ccccc3)CC2)n1 [Compound 3t] | > 10 | > 100
27 | COc1ccccc1Cc1c(=O)[nH]c(=O)[nH]c1[C@H]1CC[C@H](c2ccccc2)CC1 [Compound 3u] | < 5 | 50 to 100
28 | CN(C)c1cccc(Cc2c(=O)[nH]c(=O)[nH]c2[C@H]2CC[C@H](c3ccccc3)CC2)n1 [Compound 3v] | 5 to 10 | < 50
29 | O=c1[nH]c(=O)c(Cc2ccc(F)c(F)c2)c([C@H]2CC[C@H](c3ccccc3)CC2)[nH]1 [Compound 3w] | > 10 | 50 to 100
30 | O=c1[nH]c(=O)c(Cc2ccc(F)cc2Cl)c([C@H]2CC[C@H](c3ccccc3)CC2)[nH]1 [Compound 3x] | > 10 | < 50
31 | O=c1[nH]c(=O)c(Cc2ccc(F)cc2F)c([C@H]2CC[C@H](c3ccccc3)CC2)[nH]1 [Compound 3y] | 5 to 10 | 50 to 100
32 | O=c1[nH]c(=O)c(Cc2cccc(F)c2F)c([C@H]2CC[C@H](c3ccccc3)CC2)[nH]1 [Compound 3z] | < 5 | < 50
33 | Cc1cccc(Cc2c(=O)[nH]c(=S)[nH]c2[C@H]2CC[C@H](c3ccccc3)CC2)c1 [Compound 12g, (E)-6-(4-Phenylcyclohexyl)-2-thioxo-5-(3-methylbenzyl)-2,3-dihydro-1H-pyrimidin-4-one] | > 10 | > 100
34 | Cc1cccc(Cc2c(=O)n(C)c(=O)[nH]c2[C@H]2CC[C@H](c3ccccc3)CC2)c1 [Compound 13a, (E)-3-Methyl-5-(3-methylbenzyl)-6-(4-phenylcyclohexyl)-1H-pyrimidine-2,4-dione] | 5 to 10 | < 50
35 | Cc1cccc(Cc2c(=O)n(CCN(C)C)c(=O)[nH]c2[C@H]2CC[C@H](c3ccccc3)CC2)c1 [Compound 13b] | > 10 | > 100
36 | O=c1[nH]c([C@H]2CC[C@H](c3ccccc3)CC2)c(Cc2cccc(Cl)c2Cl)c(=O)n1CCCN1CCOCC1 [Compound 13c] | > 10 | > 100
37 | Cn1c(=O)[nH]c([C@H]2CC[C@H](c3ccccc3)CC2)c(Cc2cccc(C(F)(F)F)c2)c1=O [Compound 13d, (E)-3-Methyl-6-(4-phenyl-cyclohexyl)-5-(3-trifluoromethyl-benzyl)-1H-pyrimidine-2,4-dione] | 5 to 10 | > 100
38 | O=c1[nH]c([C@H]2CC[C@H](c3ccccc3)CC2)c(Cc2cccc(C(F)(F)F)c2)c(=O)n1CCO [Compound 13f, (E)-3-(2-Hydroxy-ethyl)-6-(4-phenyl-cyclohexyl)-5-(3-trifluoromethyl-benzyl)-1H-pyrimidine-2,4-dione] | > 10 | > 100
